In paper PMC10452110, “Indole-3-Acetamido-Polyamines as Antimicrobial Agents and Antibiotic Adjuvants” (Biomolecules, 2023):
≈ marks a conversion by molar mass, not a printed value. Read-outs that look alike come from different tables or passages of the source.

Assays:
E. coli ATCC 25922 = test: Enhancement of erythromycin action against E. coli; format: cell-based, Escherichia coli; details: erythromycin at 10.9 µM
Method: (§1) Antibiotic enhancer concentrations were determined using previously reported protocols.

human red blood cells = test: Hemolytic assay; format: cell-based; details: mean (n = 2)
Method: Hemolysis assays were conducted using the protocols previously reported.

[1] = tested on: Candida albicans (ATCC 90028); test: Intrinsic antifungal activity (MIC) against C. albicans; format: cell-based; details: ATCC90028, C. albicans ATCC 90028, mean (n = 2), read-out: MIC C. a
Method: (§2) The susceptibility of bacterial strains Staphylococcus aureus (ATCC 25923), Escherichia coli (ATCC 25922) and Pseudomonas aeruginosa (ATCC 27853) to antibiotics and compounds was determined using previously reported protocols. Additional antimicrobial evaluation against MRSA (ATCC 43300), Klebsiella pneumoniae (ATCC 700603), Acinetobacter baumannii (ATCC 19606), Candida albicans (ATCC 90028) and Cryptococcus neoformans (ATCC 208821) was undertaken at the Community for Open Antimicrobial Drug Discovery at The University of Queensland (Australia) according to their standard protocols, as reported previously.

[2] = tested on: Staphylococcus aureus (ATCC 25923); test: Intrinsic antimicrobial activity (MIC) against S. aureus; format: cell-based; details: ATCC25923, S. aureus ATCC 25923, mean (n = 3), read-out: MIC S. a
Method: as §2

P. aeruginosa ATCC 27853 = test: Enhancement of doxycycline action against P. aeruginosa; format: cell-based, Pseudomonas aeruginosa; details: doxycycline at 4.5 µM
Method: as §1

Cytotoxicity assay = format: cell-based; details: human; HEK293 cells; mean (n = 2); read-out: Cytotoxicity: concentration of compound at 50% cytotoxicity (IC50)
Method: Cytotoxicity assays were conducted using the protocols previously reported.

[3] = tested on: Pseudomonas aeruginosa (ATCC 27853); test: Intrinsic antimicrobial activity (MIC) against P. aeruginosa; format: cell-based; details: ATCC27853, P. aeruginosa ATCC 27853, mean (n = 3), read-out: MIC P. a
Method: as §2

[4] = tested on: Escherichia coli (ATCC 25922); test: Intrinsic antimicrobial activity (MIC) against E. coli; format: cell-based; details: ATCC25922, E. coli ATCC 25922, mean (n = 3), read-out: MIC E. c
Method: as §2

MRSA (ATCC 43300) = test: Intrinsic antimicrobial activity (MIC) against MRSA; format: cell-based; details: Staphylococcus aureus, read-out: MIC MRSA
Method: as §2

[5] = tested on: Cryptococcus neoformans (ATCC 208821); test: Intrinsic antifungal activity (MIC) against C. neoformans; format: cell-based; details: ATCC208821, C. neoformans ATCC 208821, mean (n = 2), read-out: MIC C. n
Method: as §2

Compound | Eryth/E. c: concentration required to restore erythromycin activity (combination MIC) (E. coli ATCC 25922) | Hemolysis: concentration of compound at 10% hemolytic activity (HC10) (human red blood cells) | MIC [1] | MIC [2] | Dox/P. a fold change (ratio between intrinsic MIC of the test compound and combination MIC) (P. aeruginosa ATCC 27853) | Dox/P. a: concentration required to restore doxycycline activity (combination MIC) (P. aeruginosa ATCC 27853) | IC50 (Cytotoxicity assay) | MIC [3] | MIC [4] | MIC (MRSA (ATCC 43300); MRSA ATCC 43300, mean (n = 2)) | MIC [5] | MIC (MRSA (ATCC 43300))
COc1cccc2c(CC(=O)NCCCNCCCCNCCCNC(=O)Cc3c[nH]c4c(OC)cccc34)c[nH]c12.O=C(O)C(F)(F)F.O=C(O)C(F)(F)F [Compound 19a, N^1,N^4-Bis(3-(2-(7-methoxy-1H-indol-3-yl)acetamido)propyl)butane-1,4-diaminium 2,2,2-trifluoroacetate] | > 249 µM | >40 µM | > 40 µM | 124 µM | 1 fold | > 249 µM | > 40 µM | > 249 µM | > 249 µM | 19.9 µM | 19.9 µM | 
O=C(Cc1c[nH]c2c(F)cccc12)NCCCNCCCCCCCNCCCNC(=O)Cc1c[nH]c2c(F)cccc12.O=C(O)C(F)(F)F.O=C(O)C(F)(F)F [Compound 18c, N^1,N^7-Bis(3-(2-(7-fluoro-1H-indol-3-yl)acetamido)propyl)heptane-1,7-diaminium 2,2,2-trifluoroacetate] | 243 µM | 1.94 µM | 38.9 µM | 30.4 µM | > 1 fold | 243 µM | > 39 µM | > 243 µM | > 243 µM | ≤ 0.3 µM | ≤ 0.3 µM | 
Cc1cccc2c(CC(=O)NCCCNCCCCCCCCCCCCNCCCNC(=O)Cc3c[nH]c4c(C)cccc34)c[nH]c12.O=C(O)C(F)(F)F.O=C(O)C(F)(F)F [Compound 20f, N^1,N^12-Bis(3-(2-(7-methyl-1H-indol-3-yl)acetamido)propyl)dodecane-1,12-diaminium 2,2,2-trifluoroacetate] | 28.2 µM | ≤0.28 µM | ≤ 0.28 µM | 28.2 µM | 1 fold | > 226 µM | > 36 µM | > 226 µM | 56.5 µM | ≤ 0.28 µM | ≤ 0.28 µM | 
CC/C(=C(\c1ccccc1)c1ccc(OCCN(C)C)cc1)c1ccccc1 [tamoxifen, reference compound] |  |  |  |  |  |  | 24 µM |  |  |  |  | 
O=C(Cc1c[nH]c2c(F)cccc12)NCCCNCCCCCCCCNCCCNC(=O)Cc1c[nH]c2c(F)cccc12.O=C(O)C(F)(F)F.O=C(O)C(F)(F)F [Compound 18d, N^1,N^8-Bis(3-(2-(7-fluoro-1H-indol-3-yl)acetamido)propyl)octane-1,8-diaminium 2,2,2-trifluoroacetate] | > 239 µM | >38 µM | > 38 µM | 29.9 µM | 1 fold | > 239 µM | > 38 µM | > 239 µM | > 239 µM | < 0.2 µM | < 0.2 µM | 
O=C(Cc1c[nH]c2c(F)cccc12)NCCCNCCCCCCCCCCCCNCCCNC(=O)Cc1c[nH]c2c(F)cccc12.O=C(O)C(F)(F)F.O=C(O)C(F)(F)F [Compound 18f, N^1,N^12-Bis(3-(2-(7-fluoro-1H-indol-3-yl)acetamido)propyl)dodecane-1,12-diaminium 2,2,2-trifluoroacetate] | 14.0 µM | ≤0.28 µM | ≤ 0.28 µM | 7 µM | 1 fold | 224 µM | 27.2 µM | 224 µM | 28 µM | ≤ 0.28 µM | ≤ 0.28 µM | 
Cc1cccc2c(CC(=O)NCCCNCCCCCCCCNCCCNC(=O)Cc3c[nH]c4c(C)cccc34)c[nH]c12.O=C(O)C(F)(F)F.O=C(O)C(F)(F)F [Compound 20d, N^1,N^8-Bis(3-(2-(7-methyl-1H-indol-3-yl)acetamido)propyl)octane-1,8-diaminium 2,2,2-trifluoroacetate] | 241 µM |  | 38.6 µM | 30.2 µM | 1 fold | > 241 µM | > 39 µM | > 241 µM | 241 µM | < 0.2 µM | < 0.2 µM | 
CN[C@H](CC(C)C)C(=O)N[C@H]1C(=O)N[C@@H](CC(N)=O)C(=O)N[C@H]2C(=O)N[C@H]3C(=O)N[C@H](C(=O)N[C@H](C(=O)O)c4cc(O)cc(O)c4-c4cc3ccc4O)[C@H](O)c3ccc(c(Cl)c3)Oc3cc2cc(c3O[C@@H]2O[C@H](CO)[C@@H](O)[C@H](O)[C@H]2O[C@H]2C[C@](C)(N)[C@H](O)[C@H](C)O2)Oc2ccc(cc2Cl)[C@H]1O [vancomycin, reference compound] |  |  |  |  |  |  |  |  |  |  |  | 0.7 µM (≈ 1.01 µg/mL)
OC(Cn1cncn1)(Cn1cncn1)c1ccc(F)cc1F [fluconazole, reference compound] |  |  | 0.4 µM (≈ 0.123 µg/mL) |  |  |  |  |  |  |  | 26 µM (≈ 7.96 µg/mL) | 
[H]/N=C(/N)N[C@H]1[C@H](O)[C@@H](O)[C@H](O[C@@H]2O[C@@H](C)[C@](O)(C=O)[C@H]2O[C@@H]2O[C@@H](CO)[C@H](O)[C@@H](O)[C@@H]2NC)[C@@H](N/C(N)=N\[H])[C@@H]1O [streptomycin, reference compound] |  |  |  | 21.5 µM (≈ 12.5 µg/mL) |  |  |  | 21.5 µM (≈ 12.5 µg/mL) | 21.5 µM (≈ 12.5 µg/mL) |  |  | 
COc1cccc2c(CC(=O)NCCCNCCCCCCCCCCNCCCNC(=O)Cc3c[nH]c4c(OC)cccc34)c[nH]c12.O=C(O)C(F)(F)F.O=C(O)C(F)(F)F [Compound 19e, N^1,N^10-Bis(3-(2-(7-methoxy-1H-indol-3-yl)acetamido)propyl)decane-1,10-diaminium 2,2,2-trifluoroacetate] | 225 µM |  | > 36 µM | 28.1 µM | > 1 fold | 225 µM | > 36 µM | > 225 µM | > 225 µM | < 0.2 µM | < 0.2 µM | 
COc1cccc2c(CC(=O)NCCCNCCCCCCNCCCNC(=O)Cc3c[nH]c4c(OC)cccc34)c[nH]c12.O=C(O)C(F)(F)F.O=C(O)C(F)(F)F [Compound 19b, N^1,N^6-Bis(3-(2-(7-methoxy-1H-indol-3-yl)acetamido)propyl)hexane-1,6-diaminium 2,2,2-trifluoroacetate] | 240 µM |  | > 38 µM | 30 µM | 1 fold | > 240 µM | > 38 µM | > 240 µM | 240 µM | < 0.2 µM | < 0.2 µM | 
O=C(N[C@H](CO)[C@H](O)c1ccc([N+](=O)[O-])cc1)C(Cl)Cl [chloramphenicol, reference compound] |  |  |  | 1.5 to 3 µM (≈ 0.485 to 0.969 µg/mL) |  |  |  |  |  |  |  | 
